Converted amounts (≈) assume the structure as drawn. Like-named read-outs stand apart in the source and are kept apart here.
Experiments:
Assay type in all cases: cell-based
[1] = tested on: Escherichia coli NCTC 8196; assay: Minimum inhibitory concentration (MIC) in microtitre plates; settings: for MIC: Escherichia coli, NCTC8196
Procedure: (§1) Determination of the Minimum Inhibitory Concentration (MIC Value) in Microtitre Plates
(§2) Casein-soybean flour-peptone broth for preparation of pre-cultures of test bacteria and yeast.
(§3) Mycological slant agar for the pre-culture of moulds
(§4) Examples of Test Organisms:
(§5) The test substances are pre-dissolved in dimethyl sulfoxide (DMSO) and tested in a dilution series of 1:2.
(§6) Bacteria and yeast are cultured overnight in CASO broth, the mould is cultured overnight on mycological slant agar, and washed off using 10 ml of 0.85% sodium chloride solution (+0.1% Triton X-100).
(§7) All the test organisms are adjusted to an organism count of 1–5×10^6 CFU/ml using 0.85% sodium chloride solution.
(§8) The test substances are pre-pipetted into microtitre plates in amounts of 8 μl per well.
(§9) Pre-diluted organism suspensions are diluted 1:100 in CASO broth (bacteria and yeast) or Sabouraud 2% glucose broth (mould) and are added in amounts of 192 μl per well to the test substances.
(§10) The test batches are incubated for 48 hours at 37° C. (bacteria and yeast) or for 5 days at 28° C. (mould).
(§11) After incubation, the growth is determined on the basis of the turbidity of the test batches (optical density) at 620 nm in a microplate reader.
(§12) The minimum inhibitory concentration (MIC value) is the concentration of substance at which there is found (compared to the growth of the control) an appreciable inhibition of growth (≦20% growth) of the test organisms.
(§13) One microtitre plate is used for each test organism and substance concentration. All the substances are tested in duplicate.

[2] = tested on: Staphylococcus hominis DMS 20328; assay: as above; settings: Table 7, 48 hours at 37° C., MIC = ≦20% growth compared to control; for MIC: Staphylococcus hominis, DMS20328, read-out: Minimum inhibitory concentration (MIC) S. hominis
Procedure: as §1, §2, §3, §4, §5, §6, §7, §8, §9, §10, §11, §12, §13

[3] = tested on: Enterococcus hirae ATCC 10541; assay: Minimum inhibitory concentration (MIC), further microorganisms; settings: Table 8, * = significant inhibition of growth, but not complete inhibition; for MIC: Enterococcus hirae, ATCC10541
Procedure: as §1, §2, §3, §5, §6, §7, §8, §9, §10, §11, §12, §13

[4] = tested on: Epidermophyton floccosum DSM 10709; assay: as above; settings: Table 8, * = significant inhibition of growth, but not complete inhibition; for MIC: Epidermophyton floccosum, DSM10709
Procedure: as §1, §2, §3, §5, §6, §7, §8, §9, §10, §11, §12, §13

[5] = tested on: Micrococcus luteus ATCC 9341; assay: as above; settings: Table 8, * = significant inhibition of growth, but not complete inhibition; for MIC: Micrococcus luteus, ATCC9341
Procedure: as §1, §2, §3, §5, §6, §7, §8, §9, §10, §11, §12, §13

[6] = tested on: S. epidermidis ATCC 12228; assay: as above; settings: Table 8, * = significant inhibition of growth, but not complete inhibition; for MIC: Staphylococcus epidermidis, ATCC12228
Procedure: as §1, §2, §3, §5, §6, §7, §8, §9, §10, §11, §12, §13

[7] = tested on: Staphylococcus aureus ATCC 9144; assay: as above; settings: Table 8, * = significant inhibition of growth, but not complete inhibition; for MIC: Staphylococcus aureus, ATCC9144
Procedure: as §1, §2, §3, §5, §6, §7, §8, §9, §10, §11, §12, §13

[8] = tested on: Trichophyton mentagrophytes ATCC 9533; assay: as above; settings: Table 8, * = significant inhibition of growth, but not complete inhibition; for MIC: Trichophyton mentagrophytes, ATCC9533
Procedure: as §1, §2, §3, §5, §6, §7, §8, §9, §10, §11, §12, §13

[9] = Table 7, 48 hours at 37° C., MIC = ≦20% growth compared to control
[10] = Table 8, * = significant inhibition of growth, but not complete inhibition
[11] = Table 7, 48 hours at 37° C., MIC = ≦20% growth compared to control, read-out: Minimum inhibitory concentration (MIC) E. coli
[12] = Table 8, * = significant inhibition of growth, but not complete inhibition, read-out: Minimum inhibitory concentration (MIC) E. coli NCTC 8196

SMILES | Minimum inhibitory concentration (MIC) E. coli [1, 9] | Minimum inhibitory concentration (MIC) E. coli NCTC 8196 [1, 10] | Minimum inhibitory concentration (MIC) S. hominis [2] | Minimum inhibitory concentration (MIC) Enterococcus hirae ATCC 10541 [3] | Minimum inhibitory concentration (MIC) Epidermophyton floccosum DSM 10709 [4] | Minimum inhibitory concentration (MIC) Micrococcus luteus ATCC 9341 [5] | Minimum inhibitory concentration (MIC) S. epidermidis ATCC 12228 [6] | Minimum inhibitory concentration (MIC) Staphylococcus aureus ATCC 9144 [7] | Minimum inhibitory concentration (MIC) Trichophyton mentagrophytes ATCC 9533 [8] | MIC [1, 11] | MIC [1, 12] | MIC [2] | MIC [3] | MIC [4] | MIC [5] | MIC [6] | MIC [7] | MIC [8]
CCCCCCCCCNc1nc(-c2ccccn2)nc(C)c1C(C)C [compound 70] | >120 µg/mL | >60 µg/mL | 3.75 µg/mL (≈ 10.6 µM) | 3.75 µg/mL (≈ 10.6 µM) | *7.5 μg/mL | 1.0 µg/mL (≈ 2.82 µM) | 7.5 µg/mL (≈ 21.2 µM) | 7.5 µg/mL (≈ 21.2 µM) | 15 µg/mL (≈ 42.3 µM) | – | – | – | – | – | – | – | – | –
CCCCCCCCCCNc1nc(-c2ccccn2)nc(C)c1C(C)C [compound 71] | >80 µg/mL | >60 µg/mL | 5 µg/mL (≈ 13.6 µM) | 7.5 µg/mL (≈ 20.3 µM) | 60 µg/mL (≈ 163 µM) | 1.9 µg/mL (≈ 5.16 µM) | 7.5 µg/mL (≈ 20.3 µM) | 7.5 µg/mL (≈ 20.3 µM) | *30 μg/mL | – | – | – | – | – | – | – | – | –
CCCCCCCCCCCCCCCCNc1cc(C(F)(F)F)nc(-c2ccccn2)n1 [compound 37] | – | – | – | – | – | – | – | – | – | > 120 µg/mL | > 30 µg/mL | > 120 µg/mL | 30 µg/mL (≈ 64.6 µM) | > 60 µg/mL | 1 µg/mL (≈ 2.15 µM) | 7.5 µg/mL (≈ 16.1 µM) | 15 µg/mL (≈ 32.3 µM) | > 60 µg/mL
CCCCCCCCNc1cc(C(F)(F)F)nc(-c2ccccn2)n1 [compound 33] | >80 µg/mL | >60 µg/mL | 2.5 µg/mL (≈ 7.09 µM) | 15 µg/mL (≈ 42.6 µM) | >60 µg/mL | <0.5 µg/mL | 3.75 µg/mL (≈ 10.6 µM) | 15 µg/mL (≈ 42.6 µM) | >60 µg/mL | – | – | – | – | – | – | – | – | –
CC(C)(C)c1cc(NCCc2ccccc2)nc(-c2ccccn2)n1 [compound 63] | >120 µg/mL | *60 μg/mL | 3.75 µg/mL (≈ 11.3 µM) | 30 µg/mL (≈ 90.2 µM) | *15 μg/mL | 7.5 µg/mL (≈ 22.6 µM) | 30 µg/mL (≈ 90.2 µM) | 15 µg/mL (≈ 45.1 µM) | *60 μg/mL | – | – | – | – | – | – | – | – | –
CCCCCCCNc1nc(-c2ccccn2)nc(C)c1C(C)C [compound 68] | >120 µg/mL | >30 µg/mL | 7.5 µg/mL (≈ 23 µM) | 7.5 µg/mL (≈ 23 µM) | 60* μg/mL | 3.75 µg/mL (≈ 11.5 µM) | 15 µg/mL (≈ 45.9 µM) | 15 µg/mL (≈ 45.9 µM) | >60 µg/mL | – | – | – | – | – | – | – | – | –
CCCCCCCCCCNc1nc(-c2ccccn2)nc(C)c1CC [compound 11] | >120 µg/mL | >60 µg/mL | 3.75 µg/mL (≈ 10.6 µM) | 7.5 µg/mL (≈ 21.2 µM) | >60 µg/mL | 1.9 µg/mL (≈ 5.36 µM) | 7.5 µg/mL (≈ 21.2 µM) | 7.5 µg/mL (≈ 21.2 µM) | >60 µg/mL | – | – | – | – | – | – | – | – | –
CCCCCCCCNc1cc(C(C)(C)C)nc(-c2ccccn2)n1 [compound 57] | >120 µg/mL | >60 µg/mL | 3.75 µg/mL (≈ 11 µM) | 1.0 µg/mL (≈ 2.94 µM) | 60 µg/mL (≈ 176 µM) | <0.5 µg/mL | 1.9 µg/mL (≈ 5.58 µM) | 1.9 µg/mL (≈ 5.58 µM) | *60 μg/mL | – | – | – | – | – | – | – | – | –
CCCCCCCCCCNc1cc(C(C)C)nc(-c2ccccn2)n1 [compound 47] | – | – | – | – | – | – | – | – | – | > 80 µg/mL | > 60 µg/mL | 5 µg/mL (≈ 14.1 µM) | 3.75 µg/mL (≈ 10.6 µM) | 60 µg/mL (≈ 169 µM) | < 0.5 µg/mL | 3.75 µg/mL (≈ 10.6 µM) | 7.5 µg/mL (≈ 21.2 µM) | 60 µg/mL (≈ 169 µM)
CCCCCCCNc1cc(C(C)(C)C)nc(-c2ccccn2)n1 [compound 56] | >120 µg/mL | >60 µg/mL | 3.75 µg/mL (≈ 11.5 µM) | 1.9 µg/mL (≈ 5.82 µM) | *30 μg/mL | <0.5 µg/mL | 3.75 µg/mL (≈ 11.5 µM) | 3.75 µg/mL (≈ 11.5 µM) | *30 μg/mL | – | – | – | – | – | – | – | – | –
CCCCCCCCCCNc1cc(C)nc(-c2ccccn2)n1 [compound 23] | >120 µg/mL | >60 µg/mL | 3.75 µg/mL (≈ 11.5 µM) | 3.75 µg/mL (≈ 11.5 µM) | *15 μg/mL | <0.5 µg/mL | 7.5 µg/mL (≈ 23 µM) | 7.5 µg/mL (≈ 23 µM) | 15 µg/mL (≈ 45.9 µM) | – | – | – | – | – | – | – | – | –
CCCCCCCCNc1nc(-c2ccccn2)nc(C)c1CC [compound 9] | >120 µg/mL | >60 µg/mL | 7.5 µg/mL (≈ 23 µM) | 30 µg/mL (≈ 91.9 µM) | *15 μg/mL | 3.75 µg/mL (≈ 11.5 µM) | *15 μg/mL | 15 µg/mL (≈ 45.9 µM) | *30 μg/mL | – | – | – | – | – | – | – | – | –

From patent publication US7015228B2, “4-amino-2-(2-pyridyl)pyrimidines as microbicidal active substances” (Ciba Specialty Chemicals Corporation, priority 2001, dated 2006)
